The text below walks through data of patent US10407408B2, “Imide derivatives and use thereof as medicine” (MITSUBISHI TANABE PHARMA CORPORATION, priority 2015, dated 2019).

For test [1], the system named is rat monoiodoacetic acid-induced osteoarthritis model. Put plainly: Suppressive action on joints injury marker COMP in rat monoiodoacetic acid-induced osteoarthritis model. It counts as in vivo. The note with it: for Joints injury marker COMP suppression rate (%): oral. The protocol: Experimental Example 3 Suppressive Action on Articular Joints Injury Marker Free of Rat Monoiodoacetic Acid-Induced Osteoarthritis Model
Monoiodoacetic acid solution (0.3 mg/25 μL) was injected into the right hindpaw knee joint cavity of anesthetized rats (LEW, male, 7-week-old). […] On day 5, cold phosphate buffer (20 μL) was injected into the right hindpaw knee joint cavity of the euthanized rats, and the joint cavity washing was collected. The joints injury marker COMP (Cartilage Oligomeric Matrix Protein) concentration of the joint cavity washing was quantified using a commercially available measurement reagent (Animal COMP ELISA Kit manufactured by Anamer Medical).
Calculation of Joints Injury Marker COMP Suppression Rate
The COMP suppression rate of the test compound was calculated from the following formula: % suppression=100−((Test−Min)/(Max−Min)×100) wherein Max is a COMP concentration of the joint cavity washing of the pathology group administered with a monoiodoacetic acid solution (oral administration of solvent alone), Min is a COMP concentration of the joint cavity washing of the non-treatment normal group (oral administration of solvent alone), and Test is a COMP concentration of the joint cavity washing of the test compound administration group.

For test [2], the system named is proMMP-9 production by human TNFα stimulated THP-1 cell. Put plainly: Action on proMMP-9 production by human TNFα stimulated THP-1 cell (ELISA of culture supernatant). The class given is cell-based. To be noted: THP-1 cells, human TNFα 10 ng/mL, 24 hr; IC50 from 3 concentrations (5, 50, 500 or 1, 10, 100 nmol/L); read-out: proMMP-9 suppression rate IC50. The protocol:
Experimental Example 1: Action of Human TNFα Stimulated THP-1 Cell on proMMP-9 Production
THP-1 cell (human monocytic leukemia cell line) was adjusted to 1×10^7 cells/mL in a culture medium (10% fetal bovine serum/RPMI1640 medium), and dispensed to a 96 well multiplate. This was equilibrated under the conditions of 37° C./5% CO2, and a culture medium containing human TNFα (final concentration 10 ng/mL) and a test compound was dissolved therein. After incubation under the conditions of 37° C./5% CO2 for 24 hr, the culture medium was centrifuged and the culture supernatant was collected, which was subjected to the following measurement.
Quantification of proMMP-9 in Culture Supernatant
The proMMP-9 concentration of the collected culture supernatant was quantified using a commercially available measurement reagent (manufactured by GE Healthcare, MMP-9, Human, Biotrak ELISA System).
Calculation of proMMP-9 Suppression Rate
The proMMP-9 suppression rate of the test compound was calculated from the following formula: % suppression=100−((Test−Min)/(Max−Min)×100) wherein Max is proMMP-9 concentration of culture supernatant induced by stimulation with human TNFα, without addition of a test compound (added with solvent alone) Min is proMMP-9 concentration of culture supernatant without addition of a test compound (added with solvent alone) and without stimulation with human TNFα, and Test is proMMP-9 concentration of culture supernatant induced by stimulation with human TNFα when a test compound is added.
Furthermore, the concentration of the test compound necessary for suppressing proMMP-9 production by human TNFα stimulated THP-1 cell by 50% (IC50 value) was calculated from 3 points of proMMP-9 suppression rate at test compound concentrations of 5, 50 and 500 nmol/L or 1, 10 and 100 nmol/L.
MMP-9 is produced as a precursor proMMP-9 by the stimulated cells, extracellularly activated and expresses the physiological activity as MMP-9. That is, evaluation of the suppression of proMMP-9 produced by the cell means evaluation of the suppression of production of MMP-9. The same applies to MMP-2, and evaluation of the suppression of proMMP-2 produced by the cell means evaluation of the suppression of production of MMP-2.
On the technique in general: An ELISA detects its analyte on a solid surface through an enzyme-linked reagent.

For test [3], the system named is proMMP-2 production by THP-1 cell. Put plainly: Action on hemostatic type proMMP-2 production by THP-1 cell (ELISA of culture supernatant). It counts as cell-based. The note with it: Homo sapiens; THP-1 cells, no stimulation, 24 hr; IC50 from 0.1, 1 and 10 μmol/L; read-out: IC50 value (μmol/L), proMMP-2 production suppression. The procedure: Experimental Example 2: Action of THP-1 Cell on Hemostatic Type proMMP-2 Production
THP-1 cell (human monocytic leukemia cell line) was adjusted to 1×10^7 cells/mL in a culture medium (10% fetal bovine serum/RPMI1640 medium), and dispensed to a 96 well multiplate. This was equilibrated under the conditions of 37° C./5% CO2, and a culture medium dissolving a test compound was added thereto. After incubation under the conditions of 37° C./5% CO2 for 24 hr, the culture medium was centrifuged and the culture supernatant was collected, which was subjected to the following measurement.
Quantification of proMMP-2 in Culture Supernatant
The proMMP-2 concentration of the collected culture supernatant was quantified using a commercially available measurement reagent (manufactured by GE Healthcare, MMP-2, Human, Biotrak ELISA System).
Calculation of proMMP-2 Suppression Rate
The proMMP-2 suppression rate of the test compound was calculated from the following formula: % suppress=100−((Test/Cont)×100). wherein Cont is proMMP-2 concentration of culture supernatant without addition of a test compound (added with solvent alone) and Test is proMMP-2 concentration of culture supernatant with addition of a test compound. […]

The subject of test [4] is mouse dextran sulfuric acid induced colitis model. Put plainly: Suppressive action on enteritis score (Disease Activity Index, DAI) of mouse dextran sulfuric acid induced colitis model. To be noted: mouse (C57BL/6J), oral, 30 mg/kg twice per day until day 10; AUC of DAI on days 3, 5, 7 and 10; pathology group 11.75 ± 1.18. It counts as in vivo. The procedure:
Experimental Example 4 Suppressive Action on Enteritis Score (Disease Activity Index, DAI) of Mouse Dextran Sulfuric Acid Induced Colitis Model
Mice (C57BL/6J, male, 6-week-old) were allowed to freely ingest 2.0% (w/v) dextran sulfuric acid solution for 5 days, the solution was exchanged with water, and pathology was evaluated on day 10. The test compound was orally administered twice per day at a dose of 30 mg/kg for 5 days of dextran sulfuric acid solution ingestion and thereafter until day 10. On days 3, 5, 7 and 10 from the start of the test, the body weight decrease, stool consistency, and the state of occult blood or gross bleeding were respectively scored in 0-4 points, and the mean of the total score was taken as Disease Activity Index (DAI), an index of enteritis pathology. The diagnostic criteria of the stool consistency score and occult blood or gross bleeding score were as follows.
The evaluation results are shown by the area under the curve (AUC) calculated using DAI on days 3, 5, 7 and 10.

SMILES strings stand for the structures.

Regarding `Cc1cnc(N2CCN(C(=O)c3ccc(N4C(=O)NC(=O)C4C(C)C)cc3)CC2)c(C)c1` (centres unmarked) [Example 571, reference compound], the “Joints injury marker COMP suppression rate (%)” value in test [1] (comparison compound of patent document 3 (WO 2011/136292), rat, 3 mg/kg once per day) is 55.3%. In the case of `Cc1cnc(N2CCN(C(=O)c3ccc([C@@]4(C(C)C)NC(=O)NC4=O)cc3)CC2)c(C)c1` [Example 8, (R)-5-{4-[4-(3,5-dimethylpyridin-2-yl)piperazine-1-carbonyl]phenyl}-5-isopropylimidazolidine-2,4-dione], the “Joints injury marker COMP suppression rate (%)” value in test [1] (rat (LEW), 0.1 mg/kg once per day, joint cavity washing on day 5) came out at 84.3%. In addition, the “superiority in joints injury marker COMP suppression rate compared with Example 571 described in patent document 3” value in test [1] (rat monoiodoacetic acid model, 0.1 mg/kg versus 3 mg/kg once per day) is “at least 30 fold”. Take `Cc1cnc(N2CCN(C(=O)c3ccc(N4C(=O)NC(=O)C4C)cc3)CC2)c(C)c1` (centres unmarked) [Example 450, reference compound]: the “Joints injury marker COMP suppression rate (%)” value in test [1] (comparison compound of patent document 3 (WO 2011/136292), rat, 1 mg/kg once per day) worked out at 14.4%. For the compound `Cc1cnc(N2CCN(C(=O)c3ccc([C@@]4(C)NC(=O)NC4=O)cc3)CC2)c(C)c1` [Example 1, (R)-5-{4-[4-(3,5-dimethylpyridin-2-yl)piperazine-1-carbonyl]phenyl}-5-methylimidazolidine-2,4-dione], the results for the IC50 in test [2] and in test [3] were 27 nM and > 10 µmol/L, respectively. In test [1] (rat (LEW), 1 mg/kg once per day, joint cavity washing on day 5), the “Joints injury marker COMP suppression rate (%)” value was found to be 80.9%. Further, in test [1] (rat monoiodoacetic acid model, both at 1 mg/kg once per day), the “superiority in joints injury marker COMP suppression rate compared with Example 450 described in patent document 3” value is on record as “at least 5 fold”. Also, in test [4], the “DAI (AUC)” value worked out at 9.78 ± 0.80. For the compound `Cc1cnc(N[C@H]2C[C@@H](C#N)N(C(=O)c3ccc([C@@]4(C(C)C)NC(=O)NC4=O)cc3)C2)c(C)c1` [Example 198, (2S,4S)-4-(3,5-dimethylpyridin-2-ylamino)-1-[4-((R)-4-isopropyl-2,5-dioxoimidazolidin-4-yl)benzoyl]pyrrolidine-2-carbonitrile], the IC50 in test [2] came to 2 nM. The same measure, in the same setting: the same measure for `Cc1cc(C)c(N2CCN(C(=O)c3ccc(C4(c5ccccc5)NC(=O)NC4=O)cc3)CC2)nc1C` (centres unmarked) [Example 108, 5-phenyl-5-{4-[4-(3,5,6-trimethylpyridin-2-yl)piperazine-1-carbonyl]phenyl}imidazolidine-2,4-dione]: 11 nM. As to `COC(=O)[C@@H]1CN(c2ncc(C)cc2C)CCN1C(=O)c1ccc([C@@]2(C(C)C)NC(=O)NC2=O)cc1` [Example 64, (S)-4-(3,5-dimethylpyridin-2-yl)-1-[4-((R)-4-isopropyl-2,5-dioxoimidazolidin-4-yl)benzoyl]piperazine-2-carboxylic acid methyl ester], the IC50 in test [2] was 64 nM. Same read-out and setting: the same measure for `Cc1ccc2nc(C3CCN(C(=O)c4ccc([C@@]5(C)NC(=O)NC5=O)cc4)CC3)oc2c1` [Example 267, (R)-5-methyl-5-{4-[4-(6-methylbenzoxazol-2-yl)piperidine-1-carbonyl]phenyl}imidazolidine-2,4-dione]: 5 nM; for `CC(C)[C@]1(c2ccc(C(=O)N3CCC(c4nnc(-c5ccccc5)s4)CC3)cc2)NC(=O)NC1=O` [Example 227, (R)-5-isopropyl-5-{4-[4-(5-phenyl[1,3,4]thiadiazol-2-yl)piperidine-1-carbonyl]phenyl}imidazolidine-2,4-dione]: 84 nM.
